From US20240225971A1 (Genomatica, Inc., priority 2021, published 2024)
≈ marks a conversion by molar mass, not a printed value. Where two headings read alike, the source gives them in different places.

Tests used:
[1] = Flash point of fragrance ingredients; assay type: physicochemical
Text: (§1) Also included is the molecular weight of each of the fragrance ingredients. Not determinable (ND).

[2] = Water solubility at 25° C. of fragrance ingredients
Text: as §1

[3] = Vapor pressure of fragrance ingredients
Text: as §1

physchem = assay: physchem
Text: The term “fragrance composition” or “composition,” as used herein, represents a composition containing one or more fragrance ingredients described here and formulated with a physiologically acceptable diluent or solvent, used interchangeably here. In a fragrance composition, or composition that has a fragrance, such as a perfume, 20%-40% of the observable liquid may be comprised of a diluent, i.e., the delivery system for scents of the fragrance ingredients. The “log P” value, as used here, indicates whether a substance or fragrance ingredient will be absorbed by humans, animals, plants, or living tissue; diffused or disseminated by water.
as §1

microorganisms = assay: Minimum Inhibitory Concentration (MIC) testing; assay type: cell-based; conditions: concentration completely inhibiting microbial growth
[4] = Clarity of fragrance ingredient in bioderived 1,3-BG by visual observation
Experimental: Clarity for each of the fragrance ingredients (10% in bioderived 1,3-BG) was determined by visual observations after compounding and blending the fragrance ingredient with bioderived 1,3-BG and identified as clear, slightly haze, cloudy, particles, or separation.
Clarity for each of the fragrance ingredients (at 1% in bioderived 1,3-BG) was determined by visual observations after compounding and blending the fragrance ingredient with bioderived 1,3-BG and identified as clear, slightly haze, cloudy, particles, or separation.

[5] = 10% ingredient in bioderived 1,3-BG, clear, slightly haze, cloudy, particles, or separation

| Compound | Flash Point [1] [°C] | Water Solubility ([2]; 25° C.) [mg/L] | Vapor Pressure [3] [mm hg] | logP (physchem) | Clarity 10% [4, 5] | also measured |
| --- | --- | --- | --- | --- | --- | --- |
| C=CCCCCCCCCC=O [Aldehyde C-11 Undecylenic] | 76 | 30.000 | 0.039 | 4.072 |  |  |
| OCCCO [1,3-PG, 1,3-Propylene Glycol] |  |  |  |  |  | MIC A. brasiliensis (microorganisms; A. brasiliensis): >350 mg/mL; MIC C. albicans (microorganisms; C. albicans): 250 mg/mL (≈ 3290 mM); MIC E. coli (microorganisms; E. coli): 225 mg/mL (≈ 2960 mM); MIC P. aeruginosa (microorganisms; P. aeruginosa): 200 mg/mL (≈ 2630 mM); MIC S. aureus (microorganisms; S. aureus): 300 mg/mL (≈ 3940 mM) |
| CC(=O)OCCC(C)C [Isoamyl Acetate] | 38 | 2000.000 | 5.6 |  | Clear |  |
| CC/C=C\CCO [Cis-3-Hexenol] | 44 |  | 1.039 | 1.7 | Clear |  |
| CC1CC=CCCCCCCCCCC(=O)C1 (stereo not drawn) [Muscenone] | 100 | 0.346 | 0.1 | 4.88 | Cloudy |  |
| CCOC(=O)CC1(C)OCCO1 [Fructone] | 93 | 100.000 | 0.219 | 0.982 | Clear |  |
| C=CC(C)(CCC=C(C)C)OC(C)=O (stereo not drawn) [Linalyl Acetate] | 94 |  | 0.116 | 3.93 |  | solubility ([2]; 25 °C, water): 20.1 µg/mL; Clarity 1% [4]: Clear |
| CC(=O)OC(C)(C)C1CC=C(C)CC1 (stereo not drawn) [Terpinyl Acetate] | 100 | 18.970 | 0.058 | 3.59 |  | Clarity 1% [4]: Clear |
| CCC(CC)C(=O)N(C)c1cccc(C)c1 [Paradisamide] | 138 | 46.430 | 0.0038 | 3.295 | Clear |  |
| CC1(C)CCC[C@]2(C)[C@H]3CCO[C@]3(C)CC[C@@H]12 [Ambrox Super (Ambroxan), Ambroxan] | 100 |  | 0.009 |  | Particles |  |
| CC=Cc1ccc(OC)cc1 [Anethole] | 110 |  | 0.069 |  | Cloudy |  |
| CC(=O)C(C)=CC1C(C)=CCCC1(C)C (stereo not drawn) [Methyl Ionone Gamma] | 110 |  | 0.006 | 4.315 | Cloudy | Water Solubility [2]: 2.980 mg/L |
| CCCCCCCCCC(C)C=O (stereo not drawn) [Aldehyde C-12 MNA] | 69 | 5.372 | 4.834 | 4.834 | Clear |  |
| CC/C=C\CCOC(=O)c1ccccc1O [Cis-3-Hexenyl Salicylate] | 110 |  | 0.000246 | 4.4 | Cloudy | solubility ([2]; water, 25 °C): 9.52 µg/mL (≈ 0.0432 mM) |
| CC12CCC(CC1)C(C)(C)O2 [Eucalyptol] | 50 |  | 1.9 | 2.74 | Clear | solubility ([2]; water, 25 °C): 3500 µg/mL (≈ 22.7 mM) |
| CC1(O)CCC2C(=CCCC2(C)C)C1 (stereo not drawn) [Ambrinol] | 100 |  | 0.0005 | 3.785 | Clear | Water Solubility [2]: 134.300 mg/L |
| COc1cc(C=O)ccc1O [Vanillin] | 153 |  | 0.002 |  | Clear | solubility ([2]; water, 25 °C): 6880 µg/mL (≈ 45.2 mM) |
| C=C(C)[C@@H]1CCC2=CC(=O)C[C@@H](C)[C@]2(C)C1 [Nootkatone] | 110 |  | 0.000358 | 3.77 | Clear | solubility ([2]; 25 °C, water): 2.38 µg/mL (≈ 0.0109 mM) |
| CC(=O)OCc1ccccc1 [Benzyl Acetate] | 91 |  | 0.177 |  | Clear |  |
| C=CC(C)(O)CCC=C(C)C (stereo not drawn) [Linalool] | 75 |  | 0.016 |  | Clear |  |

| Compound | Flash Point [1] [°C] | Water Solubility ([2]; 25° C.) [mg/L] | Vapor Pressure [3] [mm hg] | logP (physchem) | Clarity 10% [4, 5] | also measured |
| --- | --- | --- | --- | --- | --- | --- |
| CC(C)CCCC(C)(C)O [Dimetol] | 63 | 777.000 | 0.33 | 2.976 | Clear |  |
| CC(C)=CCCC(C)=CC=O [Citral] | 98 |  | 0.2 |  | Clear |  |
| COc1ccc(COC(C)=O)cc1 [Anisyl Acetate] | 135 | 782.900 | 0.021 | 1.887 |  | Clarity 1% [4]: Clear; Clarity 10% [4]: Clear |
| CC(=O)C1=C(C)C2CC3(C1)C(C)CCC3C2(C)C (stereo not drawn) [Vertofix Coeur] | 100 |  | 0.000084 | 5.6 | Cloudy |  |
| CCOc1cc(C=O)ccc1O [Ethyl Vanillin] | 127 |  | 0.001 |  | Clear | Water Solubility [2]: 2820.000 mg/L |
| O=Cc1ccc2c(c1)OCO2 [Heliotropine] | 110 |  | 0.003 | 1.05 |  | Water Solubility [2]: 3500.000 mg/L; Clarity 1% [4]: Clear; Clarity 10% [4]: Clear |
| CC(=O)C1(C)CC2=C(CCCC2(C)C)CC1C (stereo not drawn) [Iso E Super] | 111 |  | 0.001 | 4.71 | Cloudy |  |
| C=CC(C)CCCC(C)(C)O (stereo not drawn) [Dihydro Myrcenol] | 76 | 252.200 | 0.166 | 2.99 | Clear |  |
| N#C/C=C/c1ccccc1 [Cinnamalva] | 94 |  | 0.023 | 1.84 | Clear | Water Solubility [2]: 1067.000 mg/L |
| O=C1CCCCCCCCCCCC(=O)OCCO1 [Ethylene Brassylate] | 110 |  | 0 | 2.77 | Cloudy | solubility ([2]; water, 25 °C): 1.72 µg/mL (≈ 0.00636 mM) |
| COc1ccc(C=O)cc1 [Anisic Aldehyde] | 116 |  | 1 |  | Clear | Water Solubility [2]: 4290.000 mg/L |
| c1ccc(COCc2ccccc2)cc1 [Dibenzyl Ether] | 93 |  | 0.00103 | 3.31 | Cloudy | solubility ([2]; water, 25 °C): 40 µg/mL (≈ 0.202 mM) |
| CC1=CC(C)C(C=O)CC1 (stereo not drawn) [Cyclal C/Triplal] | 66 |  | 0.578 | 3 | Clear | Water Solubility [2]: 311.500 mg/L |
| CCCCCCCCCC=O [Aldehyde C-10] | 82 | 43.520 | 0.207 | 3.97 |  |  |
| CC1COCc2cc3c(cc21)C(C)(C)C(C)C3(C)C (stereo not drawn) [Galaxolide] | 104 |  | 0.000414 | 5.92 | Separation | solubility ([2]; 25 °C, water): 0.194 µg/mL (≈ 0.000751 mM) |
| Caryophyllene | 16 | 0.050 | 0.013 | 6.3 |  | Clarity 1% [4]: Slightly Haze; Clarity 10% [4]: Cloudy |
| CC1C(C)(C)C2=C(C(=O)CCC2)C1(C)C (stereo not drawn) [Cashmeran] | 94 | 5.937 | 0.003 | 4.5 | Clear |  |
| CC/C(=C\CC1CC=C(C)C1(C)C)CO (stereo not drawn) [Bacdanol] | 199 | 17.000 | 0.00028 | 4.3 | Clear |  |
| C=CCOC(=O)COCCC(C)C [Allyl Amyl Glycolate] | 93 | 510.700 | 0.04 | 2.7 |  |  |
| CCCCCCCCCCCC=O [Aldehyde C-12 Lauric] | 116 | 4.649 | 0.034 | 4.989 | Clear |  |
